Read-outs that look alike come from different tables or passages of the source.
What was measured:
B16F10 cells = test: Anti-tumor effect in the absence of a tumor antigen peptide; type: in vivo, mouse; conditions: Table 69, compared to ODN2006 (SEQ-49)
Experimental: After immunization by TRP2 peptide vaccine, B16F10 cells (ATTC) which is mouse melanoma expressing TRP2 protein was subcutaneously transplanted to evaluate anti-tumor effect. In a similar method to Example 3 A), on the next day that tetramer-positive ratio in peripheral blood of mouse vaccinated twice every 7 days was observed, B16F10 cells (1×10^5 cells/mouse) were subcutaneously transplanted in the right shoulder. The major and minor axes of the engrafted tumor were measured every 2 to 3 days, and the tumor volume was calculated by the formula: (major axis×minor axis^2)/2 Calculation method for indicators of anti-tumor effect For the adjuvant comprising ODN1826 100·(average tumor volume of adjuvant group)/(average tumor volume of ODN1826 group) For the adjuvant comprising ODN2006 100·(average tumor volume of adjuvant group)/(average tumor volume of ODN2006 group)
Antigen-specific CTL inducibility and anti-tumor effect of ODN2006 (SEQ-49) and SEQ-121 in the absence of a tumor antigen peptide were evaluated. In similar methods of A) and B) of Example 3, the effect of vaccine without a tumor antigen peptide was verified. Both of the antigen-specific CTL values of SEQ-49 and SEQ-121 were undetectable.

recombinant PCRV protein = test: Inducibility of antibody production in immunization by PCRV antigen vaccine (antibody titer); type: in vivo; conditions: A/J mice, recombinant PCRV protein with adjuvant, intradermal; antiserum Day 33; FIG. 15
Experimental: Perv nucleotide sequence (SEQ ID NO: 48) derived from Pseudomonas aeruginosa Strain PAO1 was cloned at NdeI-XhoI site in pET21a vector, and Escherichia coli strain BL21 (DE3) was transformed with the prepared plasmid. Strain perV-BL21 (DE3) was cultured in 500 mL of LB/Ampicillin liquid medium at 37° C., and 200 μL of 0.1 M IPTG was added when OD600 became 0.5 to induce expression of recombinant PCRV protein. After culturing at 16° C. for 18 hours, bacteria was separated by a centrifuge, and 15 ml of Buffer A (50 mM Tris-HCl (pH8.0), 0.2M NaCl) comprising 0.5% lysozyme (SIGMA Corporation) was added. After putting at 4° C. for 30 minutes, ultrasonic treatment was carried out. After centrifugation at 12,000 rpm for 10 minutes, soluble fraction was obtained. 1 mL of Ni-NTA agarose gel (QIAGEN) was added to Polyprep column (BIO-RAD Laboratories, Inc) and equilibrated with 10 mL of Buffer A. Soluble fraction was added to the column and passed. […] The resulting recombinant PCRV protein was measured the concentration with BCA assay kit (PIERCE) and kept at −80° C. […]
Antibody titer was measured as blow. […] 20 μL/well of 0.5 N sulfuric acid (Nacalai) was added, and absorbance at 450 nm was measured with a plate reader. The dilution ratio when absorbance at 450 nm is 1.0 was calculated and put as an antibody titer.

antigen-specific CTL = test: Antigen-specific CTL inducibility in the absence of a tumor antigen peptide; type: in vivo, mouse
Experimental: On 7 days after second vaccination, the blood was collected, red blood cells was removed by BD Pharm Lyse (BD pharmingen), and the white blood cells were suspended in FACS buffer (1% fetal bovine serum, 2 mM PBS with EDTA). Anti-mouse CD16/32 monoclonal antibody (BioXcell) was added thereto, and Fc receptor blocking was carried out at 4° C. for 30 minutes. […] Then, staining was carried out with DAPI (Invitrogen) and the cells were washed twice with FACS buffer. It was resuspended in FACS buffer and analyzed by FACS verse Flow Cytometer (BD bioscience) and FAC Suite software (BD bioscience). For analysis, after DAPI negative fraction was gated, white blood cells fraction were provided using forward and side-way scattering as indicators. In the white blood cells fraction, both positive cells of Alexa 647-CD8 and PE-H-2Kb Tetramer were defined as CTLs. CTL ratio in white blood cells was used for evaluation.

human TLR9 = target: T1, human TLR9 (Homo sapiens, UniProt Q9NR96); test: Reporter assay with HEK-Blue hTLR9 cells (TLR9 agonist activity); type: cell-based; conditions: HEK-Blue hTLR9 cells, 16 hours
T1 construct: host or cells: HEK-Blue hTLR9 cells (HEK293)
T1 sequence (Q9NR96 26-1032): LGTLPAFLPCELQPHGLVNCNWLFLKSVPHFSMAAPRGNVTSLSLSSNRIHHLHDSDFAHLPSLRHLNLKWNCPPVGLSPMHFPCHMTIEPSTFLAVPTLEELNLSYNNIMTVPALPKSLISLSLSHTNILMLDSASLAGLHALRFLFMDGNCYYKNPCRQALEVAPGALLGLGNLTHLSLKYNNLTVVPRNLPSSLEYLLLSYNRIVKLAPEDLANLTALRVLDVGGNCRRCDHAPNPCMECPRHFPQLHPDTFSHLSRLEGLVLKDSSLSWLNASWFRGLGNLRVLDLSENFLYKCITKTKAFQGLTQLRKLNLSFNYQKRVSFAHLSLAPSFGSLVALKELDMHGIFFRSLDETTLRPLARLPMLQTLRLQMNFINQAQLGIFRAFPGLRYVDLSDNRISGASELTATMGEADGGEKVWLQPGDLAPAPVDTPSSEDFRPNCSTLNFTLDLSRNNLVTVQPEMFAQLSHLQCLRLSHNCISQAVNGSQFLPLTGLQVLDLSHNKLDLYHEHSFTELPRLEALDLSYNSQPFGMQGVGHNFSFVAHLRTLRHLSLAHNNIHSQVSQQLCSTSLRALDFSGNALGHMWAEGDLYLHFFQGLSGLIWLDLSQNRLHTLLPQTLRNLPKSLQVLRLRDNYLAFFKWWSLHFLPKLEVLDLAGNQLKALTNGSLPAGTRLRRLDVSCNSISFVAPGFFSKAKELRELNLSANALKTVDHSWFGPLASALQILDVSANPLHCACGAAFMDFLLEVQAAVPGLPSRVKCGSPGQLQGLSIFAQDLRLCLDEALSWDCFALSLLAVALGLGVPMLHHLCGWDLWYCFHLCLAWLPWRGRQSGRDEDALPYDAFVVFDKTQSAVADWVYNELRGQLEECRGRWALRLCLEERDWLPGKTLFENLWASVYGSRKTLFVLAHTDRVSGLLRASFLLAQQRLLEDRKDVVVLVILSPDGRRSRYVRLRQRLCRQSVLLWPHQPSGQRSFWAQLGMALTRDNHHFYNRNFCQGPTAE
Experimental: HEK-Blue™ hTLR9 cells (Invivogen) used for the reporter assay were made by introducing human TLR9 gene and a reporter gene that secretory alkaline phosphatase gene bound to NF-kB-AP-1 binding region sequence in HEK293 cells, and are the cells stably expressing the both genes. 3.6×10^4 of the cells suspended in HEK-Blue™ Detection ([…]) comprising substrates against the alkaline phosphatase were seeded on the 96 well plate, and 3 nM to 30 μM of a lipid binding double-stranded oligonucleotide of the present invention, the known CpG oligonucleotides (ODN2006, SEQ-49), or adjuvant based on design in Patent Document 1, i.e., ssCpG ODN introducing a lipid ligand (SEQ-142, 143 or 144) was added. After culturing in a 37° C., 5% CO2 incubator for 16 hours, absorbency at 620 nm was measured using the culture supernatant developed a color. The result value was analyzed with TIBCO Spotfire software, and calculated the 50% effective concentration (EC50) of each oligonucleotide.

ODN2006 [SEQ-49]
Tumor inhibition rate (Day 12 after transplantation) (B16F10 cells): 0.00%
antibody titer (dilution ratio when absorbance at 450 nm is 1.0) (recombinant PCRV protein): 5.3×10^5
Ratio of average value of antigen-specific CTL (antigen-specific CTL; Table 69, in the absence of a tumor antigen peptide): Undetectable
antigen-specific CTL values (antigen-specific CTL; absence of a tumor antigen peptide): undetectable
EC50 (human TLR9; Experiment 1 (Table 28), read-out: EC50): 467 nM
EC50 (human TLR9; Experiment 1, Table 28, read-out: EC50 value): ~467 nM
EC50 (human TLR9; Experiment 2 (Table 29), read-out: EC50): 245 nM
EC50 (human TLR9; Experiment 2, Table 29, read-out: EC50 value): ~245 nM

Source: patent US10940201B2, “Nucleic acid derivative having immunostimulatory activity” (Shionogi & Co., Ltd., priority 2015, dated 2021)
